Data on one compound can be found in patent US20140161720A1, “TREATMENT OF ANGIOGENIC- OR VASCULAR-ASSOCIATED DISEASES” (THE GENERAL HOSPITAL CORPORATION, priority 2011, published 2014).

Test [1] relates to Cdc42. The experiment in a line: Cdc42 activation pull-down assay (PAK-PBD) in HUVECs. The format is cell-based, human. On the procedure:
Rac1 and cdc42 activities were measured with a Rac1 (BK035) activation assay biochem kit (Cytoskeleton) according to the manufacturer protocol. In brief, human umbilical vein endothelial cells (HUVECs) were bovine brain extract-starved for 12 hours in 1% FBS-EGM (Lonza) and pretreated with various concentrations of DAL for 30 minutes at 37° C. The HUVECs were then stimulated with VEGF at […] for 15 minutes at 37° C. After stimulation, the cells were immediately incubated on ice, washed twice with PBS, and lysed with lysis buffer. The lysates were pre-cleared and added with 15 μl of PAK-PBD beads for pull-down of activated Rac1 or cdc42. After rocking at 4° C. for 1 hour, the beads were washed once and boiled at 100° C. for 2 minutes. The protein lysates were then resolved in a 8-16% gradient gel (Invitrogen) and transferred to a PVDF membrane. Primary antibodies (anti-Rac1, 1:1000, cytoskeleton or anti-cdc42, 1:1000, cell signaling) were added to bind to the protein overnight at 4° C., followed by incubation with HRP-conjugated secondary antibodies. Protein activity was measured by the standard ECL method (Amersham).
Without wishing to be bound by theory, DAL brings about its antivascular effects by destabilizing cell adhesion through the actin cytoskeleton. […] Therefore, potential targets of DAL in signaling pathways involved in actin remodeling were evaluated. […]

Test [2] has as its target T1, IDO (Homo sapiens, UniProt P14902).
T1 construct: expressed in transfected cells; host or cells: HEK 293
The experiment in a line: IDO activity in HEK 293 cells expressing IDO (kynurenine, spectrophotometric). Format: cell-based. The following applies: kynurenine readout, 10-dose threefold dilutions. How it is done:
The IDO activity was analyzed by the presence of kynurenine with a spectrophotometric assay. DAL was tested in a 10-dose IC50 mode with threefold serial dilutions (0.1 μM, 0.3 μM, 0.9 μM, 2.7 μM, 8.1 μM, 24.3 μM, 72.9 μM, 218.7 μM, 656 μM and 2000 μM). […] DAL binds concurrently with the tryptophan substrate (Trp) and prevents the closure of the binding site lid that is critical for the reaction catalysis.
To determine whether DAL is an immuno-modulator, the effect of DAL on IDO activity was measured. To monitor IDO enzymatic activity, HEK 293 cells were engineered to express IDO and treated with DAL in a 10-dose IC50 mode with threefold serial dilutions. The IDO activity was analyzed by the presence of kynurenine (the first stable catabolite downstream of IDO) with a spectrophotometric assay (Katz et al., 2008; Littlejohn et al., 2000). […] Because DAL inhibits recombinant purified IDO in the enzymatic assay, it is likely that DAL physically interacts with IDO1, forming a complex that represses IDO1 activity. To elucidate a possible structural basis for this inhibition, comparative modeling and molecular docking were used (FIGS. 9A-9D). […] It was therefore assessed that if lid closure may be a critical step for the efficient reaction catalysis by IDO. […]

T1 sequence (P14902 whole entry): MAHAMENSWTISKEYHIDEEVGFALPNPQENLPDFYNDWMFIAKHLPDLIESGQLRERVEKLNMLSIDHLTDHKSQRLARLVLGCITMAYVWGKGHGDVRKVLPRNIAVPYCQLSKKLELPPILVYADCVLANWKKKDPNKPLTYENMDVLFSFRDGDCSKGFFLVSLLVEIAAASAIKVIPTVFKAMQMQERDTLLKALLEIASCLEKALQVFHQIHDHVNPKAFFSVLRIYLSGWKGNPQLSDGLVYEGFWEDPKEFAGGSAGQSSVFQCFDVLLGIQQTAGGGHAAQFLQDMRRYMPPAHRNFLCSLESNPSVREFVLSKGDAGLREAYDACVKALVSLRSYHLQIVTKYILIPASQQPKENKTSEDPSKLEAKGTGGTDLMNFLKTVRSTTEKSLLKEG

For orientation: IC50 means the concentration that gives 50% inhibition. As for `CC1(C)C=CC2=C(O1)C(=O)c1ccccc1C2=O` [DAL, dehydro-alpha-lapachone], in test [1], the Cdc42 activity entry was “no effect”. For the same compound, in test [2], the IC50 is about 300 nM.
